Laboratory results: patent EP1118615A1, “NOVEL SALTS OF PYRIDOPYRAZINE COMPOUND AND CRYSTALS THEREOF” (FUJISAWA PHARMACEUTICAL CO., LTD., priority 1998, dated 2000)

Legend:
[1] = tested on: antigen-induced eosinophil infiltration in guinea pigs; test: (B8) Inhibitory effect on antigen-induced eosinophil infiltration in guinea pigs; assay type: in vivo, Hartley guinea pigs; settings: oral 1 hour before the challenge; BAL 24 hours after challenge
Description: (B8) Inhibitory effect on antigen-induced eosinophil infiltration in guinea pigs
[Method] Male Hartley guinea pigs were sensitized by intravenous administration of guinea-pig anti-ovalbumin (OVA) antiserum. After 24 hours, an antigen challenge was performed by inhalation exposure to a nebulized 1% solution of OVA. At 24 hours after challenge with the antigen, the bronchial alveolar lavage (BAL) was collected and the number of eosinophils was determined using the eosinophil peroxidase activity in BAL as an indicator. The drug was administered orally 1 hour before the challenge. [Results]

[2] = tested on: DGalN-induced rat hepatitis model; test: (B2) DGalN-induced rat hepatitis model; assay type: in vivo, Wistar rats; settings: oral, 24 hours after DGalN
Description: (B2) DGalN-induced rat hepatitis model
[Method] Male Wistar rats aged 12 weeks were deprived of food for 24 hours and dosed orally with the drug or the solvent vehicle in predetermined doses. Immediately thereafter, saline was administered intraperitoneally to the NORMAL group and D-galactosamine hydrochloride (DGalN), 400 mg/kg, was administered similarly to the CONTROL and DRUG groups. At 24 hours after administration of DGalN, the blood was drawn and the liver isolated. Using the blood, the liver-derived en zymes (ALT, AST) in plasma were assayed. The liver was fixed in formalin and pathological specimens were prepared. Histopathological findings (inflammatory cell infiltration and liver cell necrosis) were evaluated.

IL-4 = test: (A3) Anti-CD3/CD28 antibody-stimulated cytokine production inhibitory activity in PBMC, ELISA: IL-4; assay type: cell-based; settings: Homo sapiens, anti-CD3 and anti-CD28 antibodies, 24-hr culture supernatant
Description: (§1) (A3) Anti-CD3/CD28 antibody-stimulated TNF α production inhibitory activity in human peripheral blood monocytes (PBMC)
(§2) [Method] Monocytes isolated from healthy adult male volunteers were cultured and stimulated with anti-CD3 and anti-CD28 antibodies and the amounts of TNF, INF, 1L-2, IL-4 and IL-10 in the 24-hr culture supernatant were determined by ELISA.

TNF α = test: (A3) Anti-CD3/CD28 antibody-stimulated cytokine production inhibitory activity in PBMC, ELISA: TNF α; assay type: cell-based; settings: Homo sapiens, anti-CD3 and anti-CD28 antibodies, 24-hr culture supernatant
Description: as §1, §2

[3] = tested on: Arachidonic acid-induced ear edema model; test: (B7) Atopy, Method 1: arachidonic acid-induced ear edema model; assay type: in vivo, Balb/c mice; settings: oral 30 minutes before arachidonic acid; auricle thickness after 1 hour
Description: [Method 1] Arachidonic acid-induced ear edema model:
To the left auricle of Balb/c mice, 2 mg/ear of arachidonic acid was applied to induce a skin inflammation. After 1 hour, the thickness of the auricle was measured with a peacock dial thickness gage and used as an indicator of skin inflammation. The drug was administered orally 30 minutes before application of arachidonic acid.

CS(=O)(=O)O.O.O.O=C(Nc1cccc(-n2c(=O)c(Cc3cccnc3)nc3cccnc32)c1)c1cc(Cl)cc(Cl)c1 [Example 2, 4-(3-(3,5-dichlorobenzoylamino)phenyl)-2-(3-pyridyl)methyl-3-oxo-3,4-dihydropyrido[2,3-b]pyrazine methanesulfonate dihydrate]
infiltration of eosinophils and other inflammatory cells into the bronchial alveola [1]: inhibited | elevation of blood ALT [2]: significantly inhibited | elevation of blood AST [2]: significantly inhibited | inflammatory cell infiltration ([2]; histopathology): inhibited | liver cell necrosis ([2]; histopathology): inhibited | IC50 (IL-4): 155 nM | IC50 (TNF α): 44.5 nM | ear edema [3]: significantly inhibited
